From ChEMBL document CHEMBL2203069, “Synthesis and structure-activity relationships of a novel series of pyrimidines as potent inhibitors of TBK1/IKKε kinases” (Bioorg Med Chem Lett, 2012)
Activity calls are given as the source filed them. The rule behind the calls is not given here.

Columns and labels:
Mus musculus [1] = experiment: Antiinflammatory activity in mouse assessed as inhibition of LPS-induced IFN-beta production at 15 mg/kg, ip administered 30 mins prior LPS challenge measured 1 hr post challenge by ELISA; assay type: functional, organism-based; design: dose 15 mg/kg
[2] = Volume of distribution in CD-1 mouse at 1 mg/kg, iv; assay type: ADME, organism-based; design: dose 1 mg/kg, route intravenous; settings: in vivo
[3] = Permeability from apical to basolateral side of human Caco2 cells; assay type: ADME, cell-based; settings: Caco-2, read-out: permeability
[4] = Metabolic stability in human liver microsomes assessed as compound turnover after 40 mins; assay type: ADME, Microsome; settings: read-out: Drug metabolism
[5] = biological target: MAP kinase-interacting serine/threonine-protein kinase 1 (Homo sapiens, UniProt Q9BUB5); experiment: Inhibition of MNK1
[6] = Clearance in CD-1 mouse at 1 mg/kg, iv; assay type: ADME, organism-based; design: dose 1 mg/kg, route intravenous; settings: in vivo
[7] = biological target: T1, Serine/threonine-protein kinase BRSK2 (Homo sapiens, UniProt Q8IWQ3); experiment: Inhibition of BRSK2
T1 sequence (Q8IWQ3 whole entry): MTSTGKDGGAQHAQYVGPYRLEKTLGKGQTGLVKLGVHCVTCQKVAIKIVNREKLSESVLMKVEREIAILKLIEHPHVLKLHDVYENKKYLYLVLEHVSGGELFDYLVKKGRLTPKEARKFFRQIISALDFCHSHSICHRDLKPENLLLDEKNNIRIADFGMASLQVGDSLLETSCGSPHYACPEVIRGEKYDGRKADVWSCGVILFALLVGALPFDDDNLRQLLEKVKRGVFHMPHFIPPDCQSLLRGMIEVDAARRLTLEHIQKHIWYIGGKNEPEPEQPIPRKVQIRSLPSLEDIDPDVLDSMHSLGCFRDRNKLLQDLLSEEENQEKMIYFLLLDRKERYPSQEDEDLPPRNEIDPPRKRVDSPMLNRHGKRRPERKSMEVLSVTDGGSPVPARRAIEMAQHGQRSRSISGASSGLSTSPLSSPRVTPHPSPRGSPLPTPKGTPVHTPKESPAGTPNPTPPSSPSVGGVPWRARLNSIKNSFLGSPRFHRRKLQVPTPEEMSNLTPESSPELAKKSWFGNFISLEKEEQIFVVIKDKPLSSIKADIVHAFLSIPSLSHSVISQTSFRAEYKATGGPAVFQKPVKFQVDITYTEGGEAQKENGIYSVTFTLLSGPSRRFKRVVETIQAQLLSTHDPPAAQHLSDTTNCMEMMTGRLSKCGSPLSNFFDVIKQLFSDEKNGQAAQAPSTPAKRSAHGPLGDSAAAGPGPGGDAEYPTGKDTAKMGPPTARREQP

[8] = biological target: T2, Serine/threonine-protein kinase TBK1 (Mus musculus, UniProt Q9WUN2); experiment: Inhibition of TBK1-mediated RANTES release in LPS-stimulated mouse RAW264.7 cells compound incubated for 30 mins prior LPS challenge measured after 6 hrs by ELISA; assay type: cell-based; settings: read-out: IC50
T2 sequence (Q9WUN2 whole entry): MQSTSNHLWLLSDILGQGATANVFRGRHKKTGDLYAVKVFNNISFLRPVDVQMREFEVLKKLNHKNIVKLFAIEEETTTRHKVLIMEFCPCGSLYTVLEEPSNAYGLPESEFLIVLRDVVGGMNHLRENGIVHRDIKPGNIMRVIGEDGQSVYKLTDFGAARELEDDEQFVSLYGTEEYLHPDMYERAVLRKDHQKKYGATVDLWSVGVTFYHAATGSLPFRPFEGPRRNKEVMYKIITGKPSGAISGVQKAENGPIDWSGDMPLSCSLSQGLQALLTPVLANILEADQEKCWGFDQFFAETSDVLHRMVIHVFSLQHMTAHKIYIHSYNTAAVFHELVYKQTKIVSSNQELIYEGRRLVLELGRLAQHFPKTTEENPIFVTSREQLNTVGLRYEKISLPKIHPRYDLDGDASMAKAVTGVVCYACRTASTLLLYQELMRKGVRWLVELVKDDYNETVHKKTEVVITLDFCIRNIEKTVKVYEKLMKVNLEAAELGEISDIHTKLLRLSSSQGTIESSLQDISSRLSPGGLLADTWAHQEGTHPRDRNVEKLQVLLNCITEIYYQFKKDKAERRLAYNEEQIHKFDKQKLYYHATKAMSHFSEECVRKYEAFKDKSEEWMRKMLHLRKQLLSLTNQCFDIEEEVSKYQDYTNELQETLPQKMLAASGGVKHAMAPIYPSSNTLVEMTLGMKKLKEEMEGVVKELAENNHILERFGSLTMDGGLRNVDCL

[9] = Half life in CD-1 mouse at 1 mg/kg, iv; assay type: ADME, organism-based; design: dose 1 mg/kg, route intravenous; settings: in vivo
Aurora kinase B = Aurora kinase B (Homo sapiens, UniProt Q96GD4); experiment: Inhibition of Aurora B
[10] = Inhibition of VEGFR
[11] = Inhibition of AMPK
[12] = Metabolic stability in mouse liver microsomes assessed as compound turnover after 30 mins; assay type: ADME, Microsome; settings: read-out: Drug metabolism
[13] = biological target: Cyclin-dependent kinase 2 (Homo sapiens, UniProt P24941); experiment: Inhibition of CDK2
[14] = biological target: MAP/microtubule affinity-regulating kinase 3 (Homo sapiens, UniProt P27448); experiment: Inhibition of MARK3
[15] = biological target: T3, Serine/threonine-protein kinase TBK1 (Homo sapiens, UniProt Q9UHD2); experiment: Inhibition of TBK1 by radiometry
T3 sequence (Q9UHD2 whole entry): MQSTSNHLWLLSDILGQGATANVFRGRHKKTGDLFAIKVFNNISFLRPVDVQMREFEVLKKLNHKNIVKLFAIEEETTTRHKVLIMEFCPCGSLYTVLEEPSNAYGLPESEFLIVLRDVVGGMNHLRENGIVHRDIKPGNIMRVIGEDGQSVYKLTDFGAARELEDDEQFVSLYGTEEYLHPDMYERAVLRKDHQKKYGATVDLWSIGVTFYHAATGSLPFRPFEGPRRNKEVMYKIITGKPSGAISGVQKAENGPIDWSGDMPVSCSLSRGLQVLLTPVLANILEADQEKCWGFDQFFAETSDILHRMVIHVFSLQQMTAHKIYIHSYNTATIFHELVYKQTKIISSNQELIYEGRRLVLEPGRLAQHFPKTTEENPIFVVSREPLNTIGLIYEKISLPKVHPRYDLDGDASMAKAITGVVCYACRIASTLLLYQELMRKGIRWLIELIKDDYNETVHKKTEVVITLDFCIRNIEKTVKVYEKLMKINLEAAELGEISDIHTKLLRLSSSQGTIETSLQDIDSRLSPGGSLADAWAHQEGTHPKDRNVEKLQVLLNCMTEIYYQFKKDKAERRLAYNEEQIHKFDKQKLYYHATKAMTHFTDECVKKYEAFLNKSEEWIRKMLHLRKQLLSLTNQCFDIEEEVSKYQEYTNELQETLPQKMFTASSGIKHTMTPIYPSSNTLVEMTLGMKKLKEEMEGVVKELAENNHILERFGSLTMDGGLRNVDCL

[16] = Efflux ratio of permeability from basolateral to apical side to apical to basolateral side in human Caco2 cells; assay type: ADME, cell-based; settings: Caco-2
[17] = biological target: T4, Inhibitor of nuclear factor kappa-B kinase subunit epsilon (Homo sapiens, UniProt Q14164); experiment: Inhibition of IKKepsilon
T4 sequence (Q14164 whole entry): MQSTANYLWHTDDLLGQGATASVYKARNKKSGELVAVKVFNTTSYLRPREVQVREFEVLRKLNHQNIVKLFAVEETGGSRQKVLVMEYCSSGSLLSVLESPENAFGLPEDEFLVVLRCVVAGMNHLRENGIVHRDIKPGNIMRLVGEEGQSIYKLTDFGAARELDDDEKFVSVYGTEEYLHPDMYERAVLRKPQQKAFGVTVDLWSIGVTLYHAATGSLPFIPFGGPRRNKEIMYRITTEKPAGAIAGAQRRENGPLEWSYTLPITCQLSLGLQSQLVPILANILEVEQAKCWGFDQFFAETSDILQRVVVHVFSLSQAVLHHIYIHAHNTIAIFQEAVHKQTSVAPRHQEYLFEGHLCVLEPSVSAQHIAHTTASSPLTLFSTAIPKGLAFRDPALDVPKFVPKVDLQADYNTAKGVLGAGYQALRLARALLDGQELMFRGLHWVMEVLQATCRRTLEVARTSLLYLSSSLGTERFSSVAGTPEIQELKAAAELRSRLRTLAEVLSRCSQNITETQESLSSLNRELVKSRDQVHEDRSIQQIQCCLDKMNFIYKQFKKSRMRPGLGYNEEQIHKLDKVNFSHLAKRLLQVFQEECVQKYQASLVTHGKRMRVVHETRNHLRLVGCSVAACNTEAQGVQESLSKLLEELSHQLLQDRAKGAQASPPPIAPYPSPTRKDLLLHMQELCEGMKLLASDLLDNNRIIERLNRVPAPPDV

[18] = Oral bioavailability in CD-1 mouse at 5 mg/kg; assay type: ADME, organism-based; settings: in vivo
[19] = Half life in CD-1 mouse at 5 mg/kg, po; assay type: ADME, organism-based; design: dose 5 mg/kg, route oral; settings: in vivo
Mus musculus [20] = experiment: Toxicity in mouse at >= 20 mg/kg, ip; assay type: organism-based; design: dose 20 mg/kg, route intraperitoneal; settings: in vivo

Chain of MAP/microtubule affinity-regulating kinase 3 (P27448 whole entry): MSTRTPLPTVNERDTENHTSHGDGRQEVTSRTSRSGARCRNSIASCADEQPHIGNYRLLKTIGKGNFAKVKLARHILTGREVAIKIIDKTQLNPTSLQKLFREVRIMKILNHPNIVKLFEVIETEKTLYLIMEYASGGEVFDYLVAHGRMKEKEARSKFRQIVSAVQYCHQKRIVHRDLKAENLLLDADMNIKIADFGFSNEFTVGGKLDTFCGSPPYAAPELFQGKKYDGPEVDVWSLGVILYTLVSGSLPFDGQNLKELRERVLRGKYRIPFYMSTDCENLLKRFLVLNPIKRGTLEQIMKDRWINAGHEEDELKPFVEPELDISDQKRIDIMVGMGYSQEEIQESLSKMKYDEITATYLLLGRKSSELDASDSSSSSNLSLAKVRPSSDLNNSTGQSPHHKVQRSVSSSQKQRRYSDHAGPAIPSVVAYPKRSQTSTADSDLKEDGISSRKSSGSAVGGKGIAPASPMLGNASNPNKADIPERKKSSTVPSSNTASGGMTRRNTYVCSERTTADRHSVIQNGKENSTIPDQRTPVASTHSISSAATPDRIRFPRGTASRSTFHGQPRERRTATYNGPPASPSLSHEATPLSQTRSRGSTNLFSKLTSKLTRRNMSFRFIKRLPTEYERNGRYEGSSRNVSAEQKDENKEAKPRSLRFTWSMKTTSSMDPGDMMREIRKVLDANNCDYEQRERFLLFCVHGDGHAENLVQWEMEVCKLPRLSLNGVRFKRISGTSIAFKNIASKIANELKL
Chain of Aurora kinase B (Q96GD4 whole entry): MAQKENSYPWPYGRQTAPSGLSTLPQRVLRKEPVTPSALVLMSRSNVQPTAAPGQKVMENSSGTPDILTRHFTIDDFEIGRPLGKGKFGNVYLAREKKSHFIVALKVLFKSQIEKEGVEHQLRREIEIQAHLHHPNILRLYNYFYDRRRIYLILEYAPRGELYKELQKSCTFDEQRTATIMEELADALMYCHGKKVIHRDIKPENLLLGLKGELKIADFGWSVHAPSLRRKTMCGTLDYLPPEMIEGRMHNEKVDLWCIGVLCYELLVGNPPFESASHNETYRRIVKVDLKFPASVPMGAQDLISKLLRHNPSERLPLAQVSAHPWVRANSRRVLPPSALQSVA
Chain of MAP kinase-interacting serine/threonine-protein kinase 1 (Q9BUB5 whole entry): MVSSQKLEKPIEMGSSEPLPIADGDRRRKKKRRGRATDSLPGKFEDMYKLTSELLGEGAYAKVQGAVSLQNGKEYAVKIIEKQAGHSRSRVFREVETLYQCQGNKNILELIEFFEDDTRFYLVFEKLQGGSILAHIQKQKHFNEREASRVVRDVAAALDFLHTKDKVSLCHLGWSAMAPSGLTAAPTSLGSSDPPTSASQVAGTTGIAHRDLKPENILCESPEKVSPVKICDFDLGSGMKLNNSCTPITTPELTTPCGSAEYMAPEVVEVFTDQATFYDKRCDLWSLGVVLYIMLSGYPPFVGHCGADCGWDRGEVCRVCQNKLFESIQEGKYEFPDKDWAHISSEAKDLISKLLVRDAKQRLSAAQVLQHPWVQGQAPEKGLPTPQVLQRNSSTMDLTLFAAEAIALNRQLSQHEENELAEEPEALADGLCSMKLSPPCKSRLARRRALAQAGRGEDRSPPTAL

Compound: Cn1cc(Nc2ncc(C3CC3)c(NCCCNC(=O)C3CCC3)n2)cn1
- inhibition (Mus musculus [1]): Active
- Vd [2]: 1.79 L/kg
- Papp A→B [3]: 7.4 ×10⁻⁶ cm/s
- metabolised at 40 min [4]: 0%
- IC50 [5]: 20 µM
- clearance [6]: 79 mL/min/kg
- IC50 [7]: 3.7 µM
- IC50 [8]: 0.17 µM
- half-life [9]: 27 min
- IC50 (Aurora kinase B): 0.19 µM
- IC50 [10]: 1.4 µM
- IC50 [11]: 1.8 µM
- metabolised at 0.5 h [12]: 21%
- IC50 [13]: 0.11 µM
- IC50 [14]: 0.02 µM
- IC50 [15]: 0.008 µM
- efflux ratio [16]: 8
- IC50 [17]: 0.1 µM
- bioavailability [18]: 25%
- half-life [19]: 75 min
- Activity (Mus musculus [20]): Toxic

Compound: O=C(NCCCNc1nc(Nc2ccc(N3CCOCC3)cc2)ncc1C1CC1)C1CCC1
- Papp A→B [3]: 34 ×10⁻⁶ cm/s
- metabolised at 40 min [4]: 18%
- IC50 [5]: 19 µM
- IC50 [7]: 1.9 µM
- IC50 [8]: 0.058 µM
- IC50 (Aurora kinase B): 0.7 µM
- IC50 [10]: 3.6 µM
- IC50 [11]: 0.55 µM
- metabolised at 0.5 h [12]: 53%
- IC50 [13]: 0.63 µM
- IC50 [14]: 0.012 µM
- IC50 [15]: 0.006 µM
- efflux ratio [16]: 1
- IC50 [17]: 0.03 µM
